From US20250268848A1, “COMPOSITIONS COMPRISING ENDOSIDIN 2 FOR REDUCING SARS-COV-2 INFECTION” (HENRY FORD HEALTH SYSTEM, priority 2021, published 2025)

What was measured:
[1] = system: ACE2 translocation to the cell surface of CD14+ monocytes; experiment: Flow cytometry of ACE2 surface expression in PBMCs pre-treated with ES2 before R848 or LPS; assay type: cell-based, human; conditions: PBMCs pre-treated with ES2 1-2 h, then R848 or LPS 4 h
Method: Bars represent mean±SEM of biologically independent samples, (n=3/group for 40 μM ES2 condition; n=4/group for all other conditions).
For ex vivo stimulation assays analyzed by flow cytometry, fresh PBMCs were isolated from CPT tubes using a standard protocol. Briefly, whole blood cells were diluted with Ca^2+-free and Mg^2+-free PBS buffer (Corning, NY) containing 2% fetal bovine serum (FBS, R&D Systems, Minneapolis, MN) and 2 mM EDTA (VWR Life Science, Radnor, PA) and slowly overlaid onto Ficoll-Paque™ (GE healthcare, Chicago, IL) at 2:1 ratio by volume. The samples were centrifuged at RT for 20 min at 800×g with no braking. Next, the mononuclear cell layer at the plasma-Ficoll interface was moved into a new 50 ml tube and washed with PBS buffer and red blood cell lysis buffer at RT for 5 min. The isolated PBMCs were used on the day of isolation or placed at −80° C. for storage. Two million fresh or thawed PBMCs were transferred to each well of a round-bottom 96-well culture plate (Thermo Fisher Scientific) in 200 μL of RPMI medium containing 10% FBS. The thawed PBMCs were recovered for 2 h at 37° C. with 5% C02. […]
Flow cytometry methods. […] All data were analyzed using FlowJo 10.5.3 (BO Biosciences). […]

Hela cells = conditions: cited from earlier work
blood myeloid cells = experiment: Mass cytometry (CyTOF) of surface ACE2 in whole blood myeloid cells stimulated ex vivo with R848; assay type: cell-based, human; conditions: 4 h ex vivo, COVID-19 patients and healthy controls, mean±SEM
PBMCs = experiment: Flow cytometry of ACE2 and TMPRSS2 cell surface expression in PBMCs stimulated ex vivo; assay type: cell-based, human; conditions: mean±SEM
Method: Mouse IgG1 antibodies were used as the isotype controls.
PBMCs were ex vivo cultured with R848, LPS or medium alone for 4 hrs, 24 hrs, and 48 hrs. Representative flow cytometric analysis of surface expression of ACE2 and TMPRSS2 in cDC.
PBMCs were ex vivo cultured with PMA plus ionomycin for 4 h. Representative flow cytometric analysis of surface expression of TMPRSS2 in CD4+, CD8+ and total T cells.
For ex vivo stimulation assays analyzed by flow cytometry, fresh PBMCs were isolated from CPT tubes using a standard protocol. Briefly, whole blood cells were diluted with Ca^2+-free and Mg^2+-free PBS buffer (Corning, NY) containing 2% fetal bovine serum (FBS, R&D Systems, Minneapolis, MN) and 2 mM EDTA (VWR Life Science, Radnor, PA) and slowly overlaid onto Ficoll-Paque™ (GE healthcare, Chicago, IL) at 2:1 ratio by volume. The samples were centrifuged at RT for 20 min at 800×g with no braking. Next, the mononuclear cell layer at the plasma-Ficoll interface was moved into a new 50 ml tube and washed with PBS buffer and red blood cell lysis buffer at RT for 5 min. The isolated PBMCs were used on the day of isolation or placed at −80° C. for storage. Two million fresh or thawed PBMCs were transferred to each well of a round-bottom 96-well culture plate (Thermo Fisher Scientific) in 200 μL of RPMI medium containing 10% FBS. The thawed PBMCs were recovered for 2 h at 37° C. with 5% C02. In some experiments, PBMCs were treated with different concentrations of ES2 (Sigma Aldrich) or 0.25% DMSO (the vehicle for ES2 at the highest concentration; ATCC, Manassas, VA) for 1-2 h during recovery stage. The fresh and recovered cells were then cultured with 1 μg/ml R848, LPS, or medium alone for 4 h. For TCR-independent T cell stimulation, PBMCs were cultured in RPMI medium containing 10% FBS in the presence of phorbol 12-myristate 13-acetate (PMA) (50 ng/ml) and ionomycin (1 μM) for a total of 4 h at 37° C. After incubation, the cells were washed with wash buffer in PBS containing 2% FBS and 1 mM EDTA prior to staining.
Flow cytometry methods. Single-cell suspensions were centrifuged at 450×g for 7 min, resuspended in ice-cold staining buffer (1×PBS with 2% FBS), and placed in a 96-well round-bottom plate (Thermo Fisher Scientific). After incubation with human Fe receptor blocking solution (Biolegend, San Diego, CA) at 4° C. for 15 min, cells were stained with a mixture of fluorescent surface antibodies at 4° C. for 30 min. For intracellular staining, the cells were fixed with IC Fixation Buffer (eBiosciences™, Thermo Fisher Scientific) at 4° C. for 30 min followed by incubation with fluorescent intracellular antibody cocktail in 1× Intracellular Fixation & Permeabilization Buffer (eBiosciences™, Thermo Fisher Scientific) at 4° C. for 30 min. The full list of fluorescent antibodies used is in Table 1 below. DAPI was added to the unfixed cells with surface staining at a final concentration of 1 μg/ml immediately before sample acquisition. The stained samples were then acquired on a FACSCelesta™ flow cytometer (BO Biosciences) using BO FACSDiva software version 8.0.2 (BO Biosciences). All data were analyzed using FlowJo 10.5.3 (BO Biosciences).
Methods. Flow cytometry and qRT-PCR were utilized as described in Example 1.

COc1cc(/C=N/NC(=O)c2cccc(F)c2)cc(I)c1O [ES2, 3-fluoro-benzoic acid, (2E)-2-[(4-hydroxy-3-iodo-5-methoxyphenyl)methylene]hydrazide]
rapid translocation of ACE2 to the monocyte cell surface [1]: blocked | recycling of endocytosed transferrin to the plasma membrane (Hela cells): inhibits

CCOCc1nc2c(N)nc3ccccc3c2n1CC(C)(C)O [R848, resiquimod]
surface expression of ACE2 in CD14+ classic monocytes (blood myeloid cells): 11.0±2.7% | ACE2+ TMPRSS2+ cDCs (PBMCs): 1.1%±0.21 | cell surface ACE2 localization in cDCs (PBMCs): 8.9%±0.98 | surface expression of TMPRSS2 in cDCs (PBMCs): 3.2%±0.87

lipopolysaccharide [LPS]
ACE2+ TMPRSS2+ cDCs (PBMCs): 1.1%±0.21 | cell surface ACE2 localization in cDCs (PBMCs): 8.9%±0.98 | surface expression of TMPRSS2 in cDCs (PBMCs): 3.2%±0.87
